Laboratory results reported in US6737383B1, “Herbicidal oxadiazolidines” (priority 1999, dated 2004).

Key:
bedstraw = experiment: Test B pre/postemergence bedstraw; assay type: in vivo, Galium aparine
Summary of the method: (§1)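 Response is a visual 0-to-10 score relative to untreated plants, where 0 means no effect and 10 means complete control, taken twelve to sixteen days after application. Treatments went onto soil at planting and onto foliage of 1- to 4-leaf plants, using a surfactant-containing non-phytotoxic solvent.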

morningglory = experiment: Test B pre/postemergence morningglory; assay type: in vivo, Ipomoea hederacea
Summary of the method: as §1

soybean = experiment: Test B pre/postemergence soybean; assay type: in vivo, Glycine max
Summary of the method: as §1

rape = experiment: Test B pre/postemergence rape; assay type: in vivo, Brassica napus
Summary of the method: as §1

wheat = experiment: Test B pre/postemergence wheat; assay type: in vivo, Triticum aestivum
Summary of the method: as §1

crabgrass = experiment: Test B pre/postemergence crabgrass; assay type: in vivo, Digitaria sanguinalis
Summary of the method: as §1

blackgrass = experiment: Test B pre/postemergence blackgrass; assay type: in vivo, Alopecurus myosuroides
Summary of the method: as §1

sugar beet = experiment: Test B pre/postemergence sugar beet; assay type: in vivo, Beta vulgaris
Summary of the method: as §1

pigweed = experiment: Test B pre/postemergence pigweed; assay type: in vivo, Amaranthus retroflexus
Summary of the method: as §1

surinam grass = experiment: Test B pre/postemergence surinam grass; assay type: in vivo, Brachiaria decumbens
Summary of the method: as §1

purple nutsedge = experiment: Test B pre/postemergence purple nutsedge; assay type: in vivo, Cyperus rotundus
Summary of the method: as §1

cocklebur = experiment: Test B pre/postemergence cocklebur; assay type: in vivo, Xanthium strumarium
Summary of the method: as §1

wild oat = experiment: Test B pre/postemergence wild oat; assay type: in vivo, Avena fatua
Summary of the method: as §1

corn = experiment: Test B pre/postemergence corn; assay type: in vivo, Zea mays
Summary of the method: as §1

giant foxtail = experiment: Test B pre/postemergence giant foxtail; assay type: in vivo, Setaria faberii
Summary of the method: as §1

velvetleaf = experiment: Test B pre/postemergence velvetleaf; assay type: in vivo, Abutilon theophrasti
Summary of the method: as §1

[1] = Postemergence, Rate 125 g/ha, scale 0 to 10, 0 is no effect, 10 is complete control
[2] = Preemergence, Rate 62 g/ha, scale of 0 to 10 where 0 is no effect and 10 is complete control
[3] = Preemergence, Rate 250 g/ha, scale 0 to 10, 0 is no effect, 10 is complete control
[4] = Preemergence, Rate 500 g/ha, scale 0 to 10, 0 is no effect, 10 is complete control
[5] = Rate 62 g/ha, Postemergence, scale 0 to 10, 0 no effect, 10 complete control
[6] = Postemergence, Rate 500 g/ha, scale 0 to 10, 0 is no effect, 10 is complete control
[7] = Preemergence, Rate 125 g/ha, scale 0 to 10, 0 is no effect, 10 is complete control
[8] = Preemergence, Rate 500 g/ha, scale of 0 to 10 where 0 is no effect and 10 is complete control
[9] = Postemergence, Rate 250 g/ha, scale 0 to 10

For `CC(C)N(C(=O)n1oc(=O)n(CC2=CCCN(C)C2)c1=O)c1ccccc1` [Compound 497], the “Bedstraw plant response rating” value (bedstraw; [1]) was 0, the “Plant response rating, Bedstraw” value (bedstraw; [2]) was 0 and the “Bedstraw plant response rating” value (bedstraw; [3]) was 0. For the same molecule, the “Bedstraw plant response rating” value (bedstraw; [4]) was 0, the “Bedstraw plant response rating” value (bedstraw; [5]) was 0 and the “Morningglory plant response rating” value (morningglory; [1]) was 0. For the same molecule, the “Plant response rating, Morningglory” value (morningglory; [6]) was 0, the “Plant response rating, Morningglory” value (morningglory; [2]) was 0 and the “Morningglory plant response rating” value (morningglory; [7]) was 0. The “Morningglory plant response rating” value (morningglory; [8]) was 0, the “Morningglory plant response rating” value (morningglory; [5]) was 0 and the “Soybean plant response rating” value (soybean; [1]) was 1. The “Plant response rating, Soybean” value (soybean; [6]) was 2, the “Plant response rating, Soybean” value (soybean; [2]) was 0 and the “Soybean plant response rating” value (soybean; [7]) was 0. For the same molecule, the “Soybean plant response rating” value (soybean; [8]) was 0, the “Soybean plant response rating” value (soybean; [5]) was 0 and the “Rape plant response rating” value (rape; [1]) was 0. The “Plant response rating, Rape” value (rape; [6]) was 0, the “Plant response rating, Rape” value (rape; [2]) was 0 and the “Rape plant response rating” value (rape; [7]) was 0. The “Rape plant response rating” value (rape; [8]) was 0, the “Rape plant response rating” value (rape; [5]) was 0 and the “Wheat plant response rating” value (wheat; [1]) was 0. For the same molecule, the “Plant response rating, Wheat” value (wheat; [6]) was 0, the “Plant response rating, Wheat” value (wheat; [2]) was 0 and the “Wheat plant response rating” value (wheat; [7]) was 0. The “Wheat plant response rating” value (wheat; [8]) was 0, the “Wheat plant response rating” value (wheat; [5]) was 0 and the “Crabgrass plant response rating” value (crabgrass; [1]) was 0. The “Crabgrass plant response rating” value (crabgrass; [9]) was 0, the “Plant response rating, Crabgrass” value (crabgrass; [6]) was 0 and the “Plant response rating, Crabgrass” value (crabgrass; [2]) was 0. For the same molecule, the “Crabgrass plant response rating” value (crabgrass; [7]) was 0, the “Crabgrass plant response rating” value (crabgrass; [8]) was 0 and the “Crabgrass plant response rating” value (crabgrass; [5]) was 0. For the same molecule, the “Blackgrass plant response rating” value (blackgrass; [1]) was 0, the “Blackgrass plant response rating” value (blackgrass; [9]) was 0 and the “Plant response rating, Blackgrass” value (blackgrass; [6]) was 0. For the same molecule, the “Plant response rating, Blackgrass” value (blackgrass; [2]) was 0, the “Blackgrass plant response rating” value (blackgrass; [7]) was 0 and the “Blackgrass plant response rating” value (blackgrass; [3]) was 0. The “Blackgrass plant response rating” value (blackgrass; [8]) was 0, the “Blackgrass plant response rating” value (blackgrass; [5]) was 0 and the “Sugarbeets plant response rating” value (sugar beet; [1]) was 0. The “Plant response rating, Sugarbeets” value (sugar beet; [6]) was 0, the “Plant response rating, Sugarbeets” value (sugar beet; [2]) was 0 and the “Sugarbeets plant response rating” value (sugar beet; [7]) was 0. The “Sugarbeets plant response rating” value (sugar beet; [8]) was 0, the “Sugarbeets plant response rating” value (sugar beet; [5]) was 0 and the “Redroot pigweed plant response rating” value (pigweed; [1]) was 0. For the same molecule, the “Plant response rating, Redroot pigweed” value (pigweed; [6]) was 0, the “Plant response rating, Redroot pigweed” value (pigweed; [2]) was 0 and the “Redroot pigweed plant response rating” value (pigweed; [7]) was 0. For the same molecule, the “Redroot pigweed plant response rating” value (pigweed; [8]) was 0, the “Redroot pigweed plant response rating” value (pigweed; [5]) was 0 and the “B. signalgrass plant response rating” value (surinam grass; [1]) was 0. For the same molecule, the “B. signalgrass plant response rating” value (surinam grass; Postemergence, Rate 250 g/ha, scale 0 to 10, 0 no effect, 10 complete control) was 0, the “Plant response rating, B. signalgrass” value (surinam grass; [6]) was 0 and the “Plant response rating, B. signalgrass” value (surinam grass; [2]) was 0. The “B. signalgrass plant response rating” value (surinam grass; [7]) was 0, the “B. signalgrass plant response rating” value (surinam grass; [3]) was 0 and the “B. signalgrass plant response rating” value (surinam grass; [4]) was 0. For the same molecule, the “B. signalgrass plant response rating” value (surinam grass; [5]) was 0, the “Nutsedge plant response rating” value (purple nutsedge; [1]) was 0 and the “Plant response rating, Nutsedge” value (purple nutsedge; [6]) was 0. The “Plant response rating, Nutsedge” value (purple nutsedge; [2]) was 0, the “Nutsedge plant response rating” value (purple nutsedge; [7]) was 0 and the “Nutsedge plant response rating” value (purple nutsedge; [8]) was 0. For the same molecule, the “Nutsedge plant response rating” value (purple nutsedge; [5]) was 0, the “Cocklebur plant response rating” value (cocklebur; [1]) was 0 and the “Cocklebur plant response rating” value (cocklebur; [9]) was 0. The “Plant response rating, Cocklebur” value (cocklebur; [6]) was 0, the “Plant response rating, Cocklebur” value (cocklebur; [2]) was 0 and the “Cocklebur plant response rating” value (cocklebur; [7]) was 0. The “Cocklebur plant response rating” value (cocklebur; [3]) was 0, the “Cocklebur plant response rating” value (cocklebur; [8]) was 0 and the “Cocklebur plant response rating” value (cocklebur; [5]) was 0. The “Wild oats plant response rating” value (wild oat; [1]) was 0, the “Plant response rating, Wild oats” value (wild oat; [6]) was 0 and the “Plant response rating, Wild oats” value (wild oat; [2]) was 0. For the same molecule, the “Wild oats plant response rating” value (wild oat; [7]) was 0, the “Wild oats plant response rating” value (wild oat; [8]) was 0 and the “Wild oats plant response rating” value (wild oat; [5]) was 0. For the same molecule, the “Corn plant response rating” value (corn; [1]) was 0, the “Corn plant response rating” value (corn; [9]) was 0 and the “Plant response rating, Corn” value (corn; [6]) was 0. The “Plant response rating, Corn” value (corn; [2]) was 0, the “Corn plant response rating” value (corn; [7]) was 0 and the “Corn plant response rating” value (corn; [8]) was 0. The “Corn plant response rating” value (corn; [5]) was 0, the “Giant foxtail plant response rating” value (giant foxtail; [1]) was 0 and the “Plant response rating, Giant foxtail” value (giant foxtail; [6]) was 0. The “Plant response rating, Giant foxtail” value (giant foxtail; [2]) was 0, the “Giant foxtail plant response rating” value (giant foxtail; [7]) was 0 and the “Giant foxtail plant response rating” value (giant foxtail; [8]) was 0. The “Giant foxtail plant response rating” value (giant foxtail; [5]) was 0, the “Velvetleaf plant response rating” value (velvetleaf; [1]) was 0 and the “Plant response rating, Velvetleaf” value (velvetleaf; [6]) was 0. For the same molecule, the “Plant response rating, Velvetleaf” value (velvetleaf; [2]) was 0, the “Velvetleaf plant response rating” value (velvetleaf; [7]) was 0 and the “Velvetleaf plant response rating” value (velvetleaf; [8]) was 0. For the same molecule, the “Velvetleaf plant response rating” value (velvetleaf; [5]) was 0.
